The target of assay [1] is T1, catalytic core of a human recombinant Glepp-1 (Homo sapiens, UniProt Q16827).
T1 construct: using the catalytic core of a human recombinant Glepp-1 as the enzyme; made in house
T1 sequence (Q16827 938-1195 limits assumed): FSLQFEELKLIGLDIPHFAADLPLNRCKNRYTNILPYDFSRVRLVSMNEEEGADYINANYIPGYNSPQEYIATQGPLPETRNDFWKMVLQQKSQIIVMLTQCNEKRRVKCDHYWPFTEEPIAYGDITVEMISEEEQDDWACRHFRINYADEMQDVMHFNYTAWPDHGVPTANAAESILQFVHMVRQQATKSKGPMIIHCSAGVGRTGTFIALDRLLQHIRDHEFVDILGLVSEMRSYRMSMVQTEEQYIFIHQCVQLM
Briefly: Glepp-1 PTP enzyme assay (DiFMUP dephosphorylation). Type of assay: biochemical. Particulars: Glepp-1, DiFMUP substrate, 30 minutes at room temperature; read-out: Inhibition (IC50). From the text: The PTP Enzyme Assay aims at determining the extent of inhibition of Glepp-1 in the presence of a test compound. The inhibition is illustrated by IC50 values which denote the concentration of test compound necessary to achieve an inhibition of 50% of Glepp-1 using the following concentration of the Glepp-1 substrate DiFMUP:
The DiFMUP assay allows to follow the dephosphorylation of DiFMUP (6,8-DiFluoro-4-MethylUmbelliferyl Phosphate)—which is the Glepp-1 substrate—mediated by Glepp-1 into its stable hydrolysis product, i.e. DiFMU (6,8-difluoro-7-hydroxy coumarin). Due to its rather low pKa and its high quantum yield, DiFMU allows to measure both acidic and alkaline phosphatase activities with a great sensitivity.
Assays were performed in a 96 well plate format, using the catalytic core of a human recombinant Glepp-1 as the enzyme and 6,8-DiFluoro-4-MethylUmbelliferyl Phosphate (DiFMUP, Molecular Probes, D-6567) as a substrate. Compounds to be tested were dissolved in 100% DMSO at a concentration of 2 mM. Subsequent dilutions of the test compounds (to yield a concentration of 100, 30, 10, 3, 1, 0.3, 0.1, 0.03, 0.01, 0.001 μM) were performed in 60% DMSO manually. 8 μl of diluted compound or vehicle (60% DMSO=control) was distributed to a black Costar 96 well plate. 42 μl of human recombinant Glepp-1 enzyme diluted in assay buffer (20 mM Tris HCl pH 7.5, 0.01% IGEPAL CA-630, 0.1 mM ethylenediaminetetracetic acid, 1 mM DL-Dithiothreitol) can be added to the dilutions of compound or vehicle (distributed to a black Costar 96 well plate), followed by 50 μl of DiFMUP diluted in the assay buffer. The reaction ran for 30 minutes at room temperature before reading the fluorescence intensity (integral or intensity) on a Perkin-Elmer Victor 2 spectrofluorimeter (excitation of 6,8-difluoro-7-hydroxy coumarin is at 355 nm, the emission at 460 nm, for 0.1 s). The percentage of inhibition is determined by measuring the relative fluorescence ion absence of a test compound (PTP inhibitor), i.e. with the solvent alone (5% DMSO). The IC50 values for inhibition were determined in triplicates.

Assay [2] deals with Balb/c mice. Briefly: Dextran Sodium Sulfate-induced ulcerative colitis in mice. It counts as in vivo. The note with it: for body weight loss: po. The method, then: Ulcerative colitis (UC) was induced in female mice (Balb/c, 20-22 g, Elevage Janvier) by Dextran Sodium Sulfate (DSS 4%) administered in drinking water. The mice had free access to DSS during 7 days. Body weight was determined daily. The severity of the UC was assessed by a clinical score (range 0 to 4) estimating the constituency of the stool (0=firm, 1=loose, 2=diarrhea) and the presence of blood (0=no blood, 1=occult blood, 2=gross rectal bleeding). Seven days after the induction of the disease, the animals were sacrificed. The length and the weight of the colon were determined and the ratio Weight/Length/100 g body weight was calculated. The spleen weight was also determined.
Compound of the invention (10, 30 & 100 mg/kg, po) was suspended in 0.5% methocel/0.25% tween 20 and was administered twice daily at days 3, 4, 5 and 6 after the induction of the UC. Sulfasalazine (200 mg/kg, po) was used as reference compound.

Assay [3] has as its system THP-1 cells. Briefly: In vitro chemotaxis, MCP-1-induced, THP1 cells (transwell). It counts as cell-based. The note with it: Homo sapiens, MCP-1/CCL2 in lower chamber, 3 hours, read-out: block chemotaxis, EC50. From the text: The compounds of Formula (I), (II), (III), (IV), (V), (VI) and (VII), may be subjected to the following assays: • (1) Glepp-1 binding assay (in vitro) • (2) In vitro assay(s): Cell functional effect. Effect on MCP-1-induced chemotaxis on THP-1 cells • (3) Lymphocyte recruitment by thioglycollate (in vivo model for inflammation) • (4) Collagen induced arthritis (CIA) in mice (in vivo model for inflammation) • (5) Contact hypersensitivity (CHS is a T cell-mediated model of skin inflammation) • (6) EAE (in vivo model for MS) • (7) Ulcerative colitis
The assay was performed as follows: After starvation of THP1 cells in serum free medium for 3 hours, 10^7 cells/ml in medium containing 0.5% BSA, and inhibitors, when indicated. 100 μl of cells were applied to the top chamber (5 μm pore size transwell plates, COSTAR, New York) and 6001 of medium containing MCP-1/CCL2, in the absence or presence of test compounds, were added to the lower chamber. After incubation at 37° C. and 5% of CO2 for 3 hours, cells that passed through the membrane were collected and counted in a Beckman Coulter® AcT 5Diff™.

The mark [4] stands for this setting: 10 mg/kg po twice daily days 3-6, versus vehicle treated group.
[5] abbreviates: 30 mg/kg po twice daily days 3-6, versus vehicle treated group.
[6] abbreviates: 100 mg/kg po twice daily days 3-6, versus vehicle treated group.

The IC50 is the concentration that inhibits the measured activity by half. As to `N#Cc1ccc(C(=O)Nc2ccc(C(=O)N/N=C3\C(=O)Nc4ccc(I)cc43)cc2)cc1` [4-cyano-N-(4-{[(2Z)-2-(5-iodo-2-oxo-1,2-dihydro-3H-indol-3-ylidene)hydrazino]carbonyl}phenyl)benzamide], the IC50 in assay [1] was < 1 µM.
On the same count and under the same terms, the value for `CCCCCCCCC#Cc1ccc(CN(C(=O)/C=C/c2cccc(C(F)(F)F)c2)c2ccc(O)c(C(=O)O)c2)cc1` [5-((4-dec-1-ynylbenzyl){(2E)-3-[3-(trifluoromethyl)phenyl]prop-2-enoyl}amino)-2-hydroxybenzoic acid] was < 1 µM.
With `CCCCCCN(Cc1ccccc1C#Cc1ccc(CCCC)cc1)C(=O)c1ccc(O)c(C(=O)O)c1` [5-{[{2-[(4-butylphenyl)ethynyl]benzyl}(hexyl)amino]carbonyl}-2-hydroxybenzoic acid], in assay [2] (setting [4]), the “colon reduction, estimated by the Weight/Length ratio” value is listed as −47% and the splenomegaly reduced was −25%. Besides, in assay [2] (setting [5]), the “colon reduction, estimated by the Weight/Length ratio” value was −50% and the splenomegaly reduced is −45%. Moreover, the body weight loss result in assay [2] (10 & 30 mg/kg) was “prevented”.
Usually EC50 stands for the midpoint of the concentration-response curve. As for `CCCCCCc1ccc(C#Cc2ccc(CN(Cc3ccc(C(F)(F)F)cc3)C(=O)C(=O)O)cc2)cc1` [{{4-[(4-hexylphenyl)ethynyl]benzyl}[4-(trifluoromethyl)benzyl]amino}-(oxo)acetic acid], in assay [1], the IC50 was < 1 µM. Moreover, the EC50 in assay [3] lay in the range of 1 to 15 µM.
As to `CCCCCCN(Cc1ccc(C#Cc2ccc(CCCC)cc2)cc1)C(=O)c1ccc(O)c(C(=O)O)c1` [5-{[{4-[(4-butylphenyl)ethynyl]benzyl}(hexyl)amino]carbonyl}-2-hydroxybenzoic acid], the IC50 in assay [1] was < 1 µM. In addition, the EC50 in assay [3] fell in the range of 1 to 15 µM.
For `O=C1NN(c2ccc(I)cc2)C(=O)/C1=C/c1ccc(Br)o1` [(4E)-4-[(5-bromo-2-furyl)methylene]-1-(4-iodophenyl)pyrazolidine-3,5-dione], the IC50 in assay [1] is < 1 µM.
In the case of `CCCCCCN(Cc1ccc(C#Cc2ccc(CCCC)cc2)cc1)c1ccc(O)c(C(=O)O)c1` [5-[{4-[(4-butylphenyl)ethynyl]benzyl}(hexyl)amino]-2-hydroxybenzoic acid], the “colon reduction, estimated by the Weight/Length ratio” value in assay [2] (setting [4]) is given as −22%; in assay [2] (setting [5]), −28%; in assay [2] (setting [6]) it was −35%. Besides, the figures for the splenomegaly reduced in assay [2] (setting [5]) and in assay [2] (setting [6]) were −31% and −65%, respectively. In assay [2] (10, 30 & 100 mg/kg), the body weight loss entry was “prevented”. Also, the IC50 in assay [1] is < 1 µM. For the same molecule, in assay [3], the 50% effective concentration (EC50) lay in the range of 1 to 15 µM.
For the molecule `CCCCCCCCNC(=O)c1ccc(-c2nc(CN(Cc3ccc(OCC(=O)O)cc3)C(=O)CCc3ccccc3)cs2)cc1` [(4-{[[(2-{4-[(octylamino)carbonyl]phenyl}-1,3-thiazol-4-yl)methyl](3-phenylpropanoyl)amino]methyl}phenoxy)acetic acid], the IC50 in assay [1] was < 1 µM.
